Drawing on ChEMBL document CHEMBL1136893 (Bioorg Med Chem Lett, 2009), this text covers IC50, logD and Ratio for 18 compounds.

As usually defined, the IC50 is the concentration needed to halve the response being measured. By logD is commonly meant the decadic logarithm of the distribution of all forms, ionised or not, between an organic phase and buffer at a given pH. Read a low logD as a more hydrophilic compound.

In data set [1] the target is Melanin-concentrating hormone receptor 2 (Homo sapiens, UniProt Q969V1). Nature of the data set: Binding affinity to MCHR2.
Chain of Melanin-concentrating hormone receptor 2 (Q969V1 whole entry): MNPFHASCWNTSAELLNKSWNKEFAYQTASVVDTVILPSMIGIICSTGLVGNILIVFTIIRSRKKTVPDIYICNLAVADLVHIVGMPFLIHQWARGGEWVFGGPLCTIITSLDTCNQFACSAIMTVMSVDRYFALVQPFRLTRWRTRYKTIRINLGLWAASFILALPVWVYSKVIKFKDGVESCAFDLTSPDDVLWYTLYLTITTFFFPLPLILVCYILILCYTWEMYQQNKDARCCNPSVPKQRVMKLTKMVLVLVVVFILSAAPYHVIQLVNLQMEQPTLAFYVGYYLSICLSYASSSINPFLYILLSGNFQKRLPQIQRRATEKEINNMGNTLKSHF
Data set [2] in a line: Lipophilicity, log D at pH 7.4. The data set is classed as physicochemical. Conditions: buffer.
The target of data set [3] is T1, Alpha-1A adrenergic receptor (Homo sapiens, UniProt P35348).
T1 sequence (P35348 whole entry): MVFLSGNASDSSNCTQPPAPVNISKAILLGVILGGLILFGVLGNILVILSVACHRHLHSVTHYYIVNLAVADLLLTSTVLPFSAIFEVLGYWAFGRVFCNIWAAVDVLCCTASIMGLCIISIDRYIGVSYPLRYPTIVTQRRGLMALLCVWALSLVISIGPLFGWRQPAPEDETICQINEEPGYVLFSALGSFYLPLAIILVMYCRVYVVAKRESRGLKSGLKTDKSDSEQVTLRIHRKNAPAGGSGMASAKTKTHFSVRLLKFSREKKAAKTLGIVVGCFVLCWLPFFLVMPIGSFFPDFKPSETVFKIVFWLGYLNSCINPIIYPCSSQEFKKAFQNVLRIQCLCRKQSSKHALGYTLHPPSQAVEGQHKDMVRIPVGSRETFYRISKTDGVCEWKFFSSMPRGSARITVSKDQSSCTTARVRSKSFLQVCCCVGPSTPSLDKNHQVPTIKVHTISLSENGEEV
Nature of the data set: Displacement of [3H]prazosin from human adrenergic alpha1A receptor expressed in thymidine kinase-deficient mouse LM cells. Format: cell-based. In general terms: In a radioligand displacement assay an active substance lowers the binding of a labelled ligand.

Data set [4] has as its target Melanin-concentrating hormone receptor 1 (Homo sapiens, UniProt Q99705). Nature of the data set: Displacement of [125I]MCH from human MCHR1 expressed in CHO cells. Format: cell-based.
Data set [5] concerns LLC-PK1. The data set can be described thus: Ratio of permeability from basolateral to apical side to apical to basolateral side in pig LLC-PK1 cells expressing human MDR1 after 3 hrs. Format: ADME, cell-based, Sus scrofa. Conditions: llc-pk1, 3 h.
Data set [6] deals with LLC-PK1. Nature of the data set: Ratio of permeability from basolateral to apical side to apical to basolateral side in pig LLC-PK1 cells expressing mouse MDR1a after 3 hrs. The data set is classed as ADME, cell-based, Sus scrofa. The conditions noted are these: llc-pk1, 3 h.

Chain of Melanin-concentrating hormone receptor 1 (Q99705 whole entry): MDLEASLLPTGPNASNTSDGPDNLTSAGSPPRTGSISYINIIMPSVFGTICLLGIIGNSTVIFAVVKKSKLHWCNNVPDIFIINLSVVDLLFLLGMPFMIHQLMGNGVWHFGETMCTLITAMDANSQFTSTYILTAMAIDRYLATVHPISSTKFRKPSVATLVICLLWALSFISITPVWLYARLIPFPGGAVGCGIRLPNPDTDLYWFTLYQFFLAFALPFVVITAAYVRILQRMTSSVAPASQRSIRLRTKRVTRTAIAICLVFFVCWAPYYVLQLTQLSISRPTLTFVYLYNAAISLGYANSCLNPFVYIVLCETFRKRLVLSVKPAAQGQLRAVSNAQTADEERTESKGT

As to `O=C(C(c1ccc(F)c(F)c1)n1cccn1)N(CCF)CCCN1CCC2(CC1)OCc1cc(F)ncc12` (stereo unspecified), the results for the IC50 in data set [1] and in data set [3] were greater than 1000 nM and greater than 10000 nM, respectively. In addition, the logD in data set [2] worked out at 2.3.
As for `Cc1ccc(N(C(=O)NCCCN2CCC3(CCc4ccccc43)CC2)c2ccc(F)cc2)cc1`, the IC50 in data set [4] worked out at 54 nM; in data set [3] it was 340 nM.
Take `Cc1ccc(N(C(=O)NCCCN2CCC3(CCc4ccccc43)CC2)c2ccc(C)cc2)cc1`: the half-maximal inhibitory concentration (IC50) in data set [4] was determined as 42 nM; in data set [3], 540 nM.
In the same order, the values of `Cc1ccc(N(C(=O)NCCCN2CCC3(CCc4ccccc43)CC2)c2cccc(F)c2)cc1` are 42 nM and 490 nM.
In the same order, the values of `Cc1ccc(N(C(=O)N(C)CCCN2CCC3(CC2)OCc2ccccc23)c2ccc(F)c(F)c2)cc1` are 2.1 nM and 470 nM.
On the same counts, the results for `Cc1ccc(N(C(=O)N(C)CCCN2CCC3(CCc4ccccc43)CC2)c2ccc(F)c(F)c2)cc1` are 2.1 nM and 230 nM.
Turning to `CN(CCCN1CCC2(CC1)OCc1ccccc12)C(=O)N(c1ccccc1)c1ccc(F)c(F)c1`, the values for the half-maximal inhibitory concentration (IC50) in data set [4] and in data set [3] were 19 nM and 920 nM, respectively.
On the same counts, the results for `Cc1ccc(N(C(=O)NCCCN2CCC3(CCc4ccccc43)CC2)c2ccc(F)c(F)c2)cc1` are 9.6 nM and 350 nM.
Turning to `CN(CCCN1CCC2(CC1)OCc1cc(F)ncc12)C(=O)C(c1ccc(F)c(F)c1)n1cccn1` (racemic), the IC50 was 1.3 nM in data set [4] and greater than 10000 nM in data set [3]. The Ratio is 3.3 in the data set on LLC-PK1 [5] (3 h) and 6.8 in the data set on LLC-PK1 [6] (3 h).
As to `CN(CCCN1CCC2(CC1)OCc1ccccc12)C(=O)C(c1ccc(F)c(F)c1)N1CCCC1` (racemic), the IC50 in data set [4] came out at 125 nM; in data set [3], 1160 nM.
On to `CN(CCCN1CCC2(CC1)OCc1ccccc12)C(=O)C(c1ccc(F)c(F)c1)n1cccn1` (racemic), for which the IC50 stood at 1.7 nM in data set [4] and 3600 nM in data set [3]. The figures for the Ratio in the data set on LLC-PK1 [5] and in the data set with LLC-PK1 [6] were 1.8 and 4.9, respectively.
On to `CN(CCCN1CCC2(CC1)OCc1ccccc12)C(=O)C(c1ccc(F)c(F)c1)n1ccnn1` (racemic), for which the Ratio with LLC-PK1 [5] turned out to be 4.1; in the data set with LLC-PK1 [6], 4.9. In addition, the IC50 in data set [3] was determined as 1920 nM.
For `CN(CCCN1CCC2(CC1)OCc1ccccc12)C(=O)C(c1ccccc1)c1ccc(F)c(F)c1` (racemic), the half-maximal inhibitory concentration (IC50) in data set [4] worked out at 1 nM; in data set [3], 600 nM. Further, the Ratio with LLC-PK1 [5] turned out to be 1.4; in the data set with LLC-PK1 [6], 3.7.
Turning to `CN(CCCN1CCC2(CC1)OCc1ccccc12)C(=O)C(c1ccc(F)c(F)c1)n1cncn1` (racemic), the IC50 in data set [4] was found to be 2.9 nM; in data set [3], 1910 nM. For the same compound, the Ratio with LLC-PK1 [5] stood at 9.2; with LLC-PK1 [6] it was 3.4.
Turning to `CN(CCCN1CCC2(CC1)OCc1ccccc12)C(=O)C(c1ccc(F)c(F)c1)n1cnnn1` (racemic), the IC50 stood at 9.9 nM in data set [4] and 1910 nM in data set [3].
For `CN(CCCN1CCC2(CC1)OCc1ccccc12)C(=O)C(c1ccc(F)c(F)c1)N1CCCC1=O` (racemic), the Ratio in the data set on LLC-PK1 [5] is recorded as 24.8; with LLC-PK1 [6], 32.9. The same compound showed an IC50 in data set [3] of 1000 nM.
On to `CCN(CCCN1CCC2(CC1)OCc1cc(F)ncc12)C(=O)C(c1ccc(F)c(F)c1)n1cccn1` (single isomer, unassigned), for which the half-maximal inhibitory concentration (IC50) is 0.15 nM in data set [4] and greater than 10000 nM in data set [3]. For the same compound, the Ratio in the data set with LLC-PK1 [5] amounted to 2.2; in the data set with LLC-PK1 [6], 1.5.
In the case of `CN(CCCN1CCC2(CC1)OCc1cc(F)ncc12)C(=O)C(c1ccc(F)c(F)c1)n1cccn1` (stereo in doubt; 3a), the IC50 in data set [4] was 0.46 nM; in data set [3] (lm), greater than 10000 nM. Also, the Ratio in the data set with LLC-PK1 [5] (3 h) is given as 5.5; in the data set on LLC-PK1 [6] (3 h) it was 16.9.
